From US11912705B2, “Cathinone derivatives, pharmaceutical formulations, and methods” (The Corporation of Mercer University, priority 2020, dated 2024)
Like-named read-outs stand apart in the source and are kept apart here.

Legend:
human M5R = molecular target: T1, human M5R (Homo sapiens, UniProt P08912); experiment: [3H]Scopolamine radioligand competition binding at M5R
T1 construct: host or cells: HEK293 (CRL-1573, ATCC), transient
T1 sequence (P08912 1-532): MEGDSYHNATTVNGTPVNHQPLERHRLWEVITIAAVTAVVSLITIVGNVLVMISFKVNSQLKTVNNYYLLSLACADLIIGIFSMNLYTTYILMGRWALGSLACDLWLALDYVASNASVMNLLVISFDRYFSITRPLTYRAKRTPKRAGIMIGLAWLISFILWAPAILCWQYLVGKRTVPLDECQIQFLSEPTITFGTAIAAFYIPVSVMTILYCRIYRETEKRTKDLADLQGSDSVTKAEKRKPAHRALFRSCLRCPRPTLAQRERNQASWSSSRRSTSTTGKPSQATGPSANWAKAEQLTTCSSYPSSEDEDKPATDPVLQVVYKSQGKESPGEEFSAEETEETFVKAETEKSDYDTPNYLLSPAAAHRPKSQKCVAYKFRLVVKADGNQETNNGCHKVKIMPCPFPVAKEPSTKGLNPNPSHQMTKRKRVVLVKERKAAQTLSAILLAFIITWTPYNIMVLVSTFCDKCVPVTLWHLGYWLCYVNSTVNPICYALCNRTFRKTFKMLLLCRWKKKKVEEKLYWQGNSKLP
Protocol: (§1) Radioligand Competition Binding: Radioligand competition binding assays were conducted using membranes collected from transiently transfected HEK293 cells (P<20 from a procured stock, CRL-1573, ATCC, Manassas, Va., USA) as previously described (Chen, Y., et al. Drug Test Anal 11, 990-998). Briefly, cells ˜90% confluent in 10 cm plates were transfected with 5 μg human M1R, M2R, M3R, M4R or […] cDNA (cDNA resource center, Bloomsburg, Pa., USA) using a lipid-based method (LipoD293 reagent, SignaGen Laboratories, Rockville, Md., USA). Membranes were collected by centrifugation about 48 hours later and stored at −80° C. until used. […] After a 90-minute incubation at room temperature on a shaker, contents from the plates were rapidly filtered through GF/B fiberglass filter mats, pre-soaked with ice cold 50 mM Tris buffer (pH 7.4), using a Microbeta Filtermat-96 cell harvester (Perkin Elmer, Waltham, Mass., USA). Approximately 200 mL of ice cold, 50 mM Tris buffer was then vacuumed through filter mats to wash away unbound radioligand. Filter mats were dried on a hot plate and soaked in Betaplate (Perkin Elmer, Waltham, Mass., USA) scintillation fluid in plastic bags. Bags were sealed and placed in cassettes. Radioactivity was measured in a Microbeta2 Microplate Counter (Perkin Elmer, Waltham, Mass., USA), and counts per minute corresponding to each well on the plates were recorded. For full dose-response competition binding assays, increasing half-log unit concentrations of five unsubstituted PSCs were tested at M2Rs and M1Rs, with the same procedures described above.
(§2) Curve Fitting and Statistical Analyses: All data were analyzed by GraphPad 8.3.0 (San Diego, Calif., USA). Ki values were determined from data fit to both one- and two-site models. […] EC50 and IC50 values from functional assays were determined from data fit to the log(agonist) vs. response (three parameters) or log(inhibitor) vs. response (three parameters) model, respectively. Kb values were calculated from IC50 values using the Cheng-Prusoff equation with modification (see, e.g., Leff, P., and Dougall, I. G. (1993) Trends Pharmacol Sci 14, 110-112): Kb=IC50/((2+([A]/[A50])nH)1/nH−1)

human M3R = molecular target: T2, human M3R (Homo sapiens, UniProt P20309); experiment: biochemical; assay type: binding; conditions: estimate from 1 and 10 μM concentrations (N = 2); N.C. = <5% displacement of radioligand at 10 μM; read-out: estimated pKi at M3R (converted)
T2 construct: host or cells: HEK293 (CRL-1573, ATCC), transient
T2 sequence (P20309 whole entry): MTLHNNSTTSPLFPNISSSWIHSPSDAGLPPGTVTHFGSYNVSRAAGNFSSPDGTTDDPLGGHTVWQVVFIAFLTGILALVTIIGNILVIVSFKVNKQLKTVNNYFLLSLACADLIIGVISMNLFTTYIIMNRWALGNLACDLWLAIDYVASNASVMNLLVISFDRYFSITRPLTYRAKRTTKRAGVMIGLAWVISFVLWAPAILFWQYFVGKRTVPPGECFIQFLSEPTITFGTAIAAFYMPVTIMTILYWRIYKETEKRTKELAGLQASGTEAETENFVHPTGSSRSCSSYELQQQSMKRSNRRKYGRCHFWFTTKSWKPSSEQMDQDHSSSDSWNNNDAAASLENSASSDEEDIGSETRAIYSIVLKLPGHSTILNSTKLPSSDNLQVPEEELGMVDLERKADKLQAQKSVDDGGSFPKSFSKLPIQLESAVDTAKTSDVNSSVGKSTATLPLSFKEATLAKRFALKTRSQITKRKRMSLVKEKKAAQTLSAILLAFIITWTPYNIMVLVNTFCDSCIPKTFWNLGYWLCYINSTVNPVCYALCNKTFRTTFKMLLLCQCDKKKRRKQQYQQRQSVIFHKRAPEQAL
Protocol: as §1, §2

human M2R [1] = molecular target: T3, human M2R (Homo sapiens, UniProt P08172); experiment: [3H]Scopolamine radioligand competition binding at M2R
T3 construct: host or cells: HEK293 (CRL-1573, ATCC), transient
T3 sequence (P08172 1-466): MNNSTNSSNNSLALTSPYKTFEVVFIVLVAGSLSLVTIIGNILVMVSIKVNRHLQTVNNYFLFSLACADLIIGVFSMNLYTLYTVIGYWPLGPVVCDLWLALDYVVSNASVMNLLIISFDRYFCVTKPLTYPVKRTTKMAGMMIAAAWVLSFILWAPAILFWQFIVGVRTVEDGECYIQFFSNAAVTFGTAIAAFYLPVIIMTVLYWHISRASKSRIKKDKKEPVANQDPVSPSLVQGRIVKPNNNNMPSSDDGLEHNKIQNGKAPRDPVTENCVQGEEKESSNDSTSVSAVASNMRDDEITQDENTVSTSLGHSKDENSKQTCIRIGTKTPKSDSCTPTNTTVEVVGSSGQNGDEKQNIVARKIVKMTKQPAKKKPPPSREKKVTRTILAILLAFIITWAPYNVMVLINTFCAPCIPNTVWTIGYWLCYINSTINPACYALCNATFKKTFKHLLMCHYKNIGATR
Protocol: as §1, §2

human M4R = molecular target: T4, human M4R (Homo sapiens, UniProt P08173); experiment: [3H]Scopolamine radioligand competition binding at M4R
T4 construct: host or cells: HEK293 (CRL-1573, ATCC), transient
T4 sequence (P08173 1-479): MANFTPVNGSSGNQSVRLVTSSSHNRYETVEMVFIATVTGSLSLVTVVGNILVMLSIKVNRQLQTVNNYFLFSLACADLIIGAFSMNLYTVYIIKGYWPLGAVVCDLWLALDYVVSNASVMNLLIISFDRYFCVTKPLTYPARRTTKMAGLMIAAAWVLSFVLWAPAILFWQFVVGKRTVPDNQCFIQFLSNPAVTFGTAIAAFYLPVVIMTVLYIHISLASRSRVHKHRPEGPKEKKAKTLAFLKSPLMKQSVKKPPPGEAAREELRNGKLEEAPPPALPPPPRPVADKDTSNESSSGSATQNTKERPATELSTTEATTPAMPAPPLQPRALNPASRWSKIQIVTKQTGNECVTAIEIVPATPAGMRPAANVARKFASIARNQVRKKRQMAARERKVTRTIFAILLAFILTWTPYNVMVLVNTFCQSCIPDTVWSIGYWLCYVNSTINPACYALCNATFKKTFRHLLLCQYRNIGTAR
Protocol: as §1, §2

human M1R = molecular target: T5, human M1R (Homo sapiens, UniProt P11229); experiment: biochemical; assay type: binding
T5 construct: host or cells: HEK293 (CRL-1573, ATCC), transient
T5 sequence (P11229 1-460): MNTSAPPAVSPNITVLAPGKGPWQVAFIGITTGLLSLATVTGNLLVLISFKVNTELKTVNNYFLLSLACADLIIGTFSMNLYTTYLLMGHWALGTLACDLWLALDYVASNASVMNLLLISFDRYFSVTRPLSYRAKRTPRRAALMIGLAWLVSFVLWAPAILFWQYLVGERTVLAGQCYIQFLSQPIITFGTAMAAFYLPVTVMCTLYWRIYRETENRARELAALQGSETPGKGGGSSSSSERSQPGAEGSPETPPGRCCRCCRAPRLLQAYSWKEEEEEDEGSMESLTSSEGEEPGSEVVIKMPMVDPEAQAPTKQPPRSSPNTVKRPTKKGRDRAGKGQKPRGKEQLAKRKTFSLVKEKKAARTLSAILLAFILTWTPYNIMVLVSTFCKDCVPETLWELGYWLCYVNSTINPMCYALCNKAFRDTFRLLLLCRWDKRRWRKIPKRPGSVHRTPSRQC
Protocol: as §1, §2

[2] = system: mitochondrial activity and cellular membranes; conditions: reported by Wojcieszak et al.; cited from earlier work
M2Rs = molecular target: T6, M2Rs (Homo sapiens, UniProt P08172); experiment: M2R β-arrestin recruitment; assay type: cell-based
T6 sequence (P08172 1-466): T3 sequence (P08172 1-466)
Description: Data are shown as normalized means (±SEM) of two, independent determinations, with oxotremorine tested at each concentration in duplicate and α-PHP tested in quadruplicate. [*Basal signaling is defined as the normalized RLU emitted by untreated cells.]

human M1Rs = molecular target: T7, human M1Rs (Homo sapiens, UniProt P11229); experiment: M1R phosphoinositide hydrolysis (IP-One HTRF); assay type: cell-based
T7 construct: host or cells: HEK293 (CRL-1573, ATCC), transient
T7 sequence (P11229 1-460): T5 sequence (P11229 1-460)

human M2R [3] = molecular target: T3, human M2R; experiment: M2R cAMP signaling (forskolin-stimulated cAMP, oxotremorine agonist); assay type: cell-based
Protocol: The M2R coupled to Gαi/o proteins, and its agonism functioned to decrease formation of the intracellular second messenger cyclic-adenosine-monophosphate (cAMP). […] In the presence of oxotremorine, an antagonist of the M2R would be expected to reverse the effects of the agonist, thereby increasing cAMP formation.
M2R cAMP Signaling: cAMP measurements were performed with the cAMP Hunter eXpress® CHRM2 CHO-K1 GPCR assay (Eurofins DiscoveRx, Fremont, Calif., USA) according to the manufacturer's protocol. Briefly, in the provided 96-well tissue culture-treated plate, 100 μL of human M2R expressing CHO-K1 cells were seeded in cell plating reagent and incubated (37° C., 5% CO2, 95% humidity) overnight. Cell plating reagent was replaced with 30 μL of cell assay buffer the next day. For agonist stimulation, cells were treated with increasing half-log unit concentrations of oxotremorine in the presence of 10 μM forskolin, followed by incubation for 30 minutes. A cAMP antibody, cAMP working detection solution and enzyme acceptor solution were then added according to the protocol, and the final chemiluminescent signals were detected by a Mithras LB 940 microplate reader (Berthold Technologies, Bad Wildbad, Germany). Antagonist tests were run by pretreating cells with increasing half-log unit concentrations of α-PHP, followed by incubation for one hour. Cells were then treated with EC80 concentration of oxotremorine (130 nM) and 10 μM forskolin. The same incubation and detection procedure used for agonist assays was used for the remaining steps.
as §2

[4] = 42 cases of intoxication, Beck et al. 2016; cited from earlier work
[5] = estimated pKi at M2R, estimate from 1 and 10 μM concentrations (N = 2), N.C. = <5% displacement of radioligand at 10 μM
[6] = estimate from 1 and 10 μM concentrations (N = 2), N.C. = <5% displacement of radioligand at 10 μM, read-out: estimated pKi at M1R (converted)
[7] = full dose-response [3H]Scopolamine competition binding, α-PPP and α-PBP interpolated, read-out: pKi at M1R (converted)
[8] = pKi at M2R, full dose-response [3H]Scopolamine competition binding, α-PPP and α-PBP interpolated

| Structure (SMILES) | Ki (human M5R) [µM] | Ki (human M3R) [µM] | Ki (human M2R [1]; [5]) [µM] | Ki (human M4R) [µM] | Ki (human M1R; [7]) [µM] | also measured |
| --- | --- | --- | --- | --- | --- | --- |
| CCC(C(=O)c1ccc2c(c1)OCO2)N1CCCC1 (stereo not drawn) [MDPBP, 3,4-Methylenedioxy-α-pyrrolidinobutiophenone] | 18.2 | 14.5 | 12.6 | 10.2 |  |  |
| CCCCC(C(=O)c1ccc2c(c1)OCO2)N1CCCC1 (stereo not drawn) [MDPHP, 3,4-Methylenedioxy-α-pyrrolidinohexiophenone] | 7.94 | 25.7 | 5.01 | 12.9 |  | Ki (human M1R; estimate from 1 and 10 μM screens, read-out: estimated Ki at M1Rs): 3.63 µM |
| CCCCCC(C(=O)c1ccc2c(c1)OCO2)N1CCCC1 (stereo not drawn) [MDPHPP, 3,4-Methylenedioxy-α-pyrrolidinoheptaphenone] | 5.62 | 36.3 | 12 | 33.1 |  | Ki (human M1R; [6]): 6.03 µM |
| CCCC(C(=O)c1ccc2c(c1)OCO2)N1CCCC1 (centres unmarked) [MDPV, 3,4-Methylenedioxypyrovalerone] | 6.31 | 70.8 | 13.8 | 8.91 |  | cytotoxicity (mitochondrial activity, cellular membrane damage) [2]: this effect was not observed; Ki (human M1R; [6]): 8.71 µM |
| CNC(C)C(=O)c1ccccc1 (centres unmarked) [methcathinone] |  |  |  |  |  | cytotoxicity (mitochondrial activity, cellular membrane damage) [2]: these toxic effects were not observed |
| O=C1CCCN1CC#CCN1CCCC1 [oxotremorine, Oxotremorine] |  |  |  |  |  | pEC50, β-arrestin recruitment (M2Rs): 5.71±0.11; pKi High at M1R (human M1R): 7.62±0.36; pKi Low at M1R (human M1R): 5.41±0.04; EC80, IP1 production (human M1Rs): 0.5 µM; pEC, IP1 production (human M1Rs): 7.21±0.20; pKi High at M2R (human M2R [1]; two-site model): 7.92±0.40; pKi Low at M2R (human M2R [1]; two-site model): 6.15±0.10; pEC50, decrease of forskolin-stimulated cAMP production (human M2R [3]; 10 μM forskolin): 7.54±0.12; EC50 (human M2R [3]; 10 μM forskolin, read-out: EC50, decrease of forskolin-stimulated cAMP production): 0.029 µM; EC80, inhibition of cAMP formation (human M2R [3]; forskolin-stimulated): 0.13 µM |
| CCC(C(=O)c1ccccc1)N1CCCC1 (stereo not drawn) [α-PBP, α-Pyrrolidinobutiophenone] |  |  |  |  | 75.9 | Ki (human M2R [1]; [8]): 39.8 µM |
| CCCCCC(C(=O)c1ccccc1)N1CCCC1 (stereo not drawn) [α-PHPP, α-Pyrrolidinoheptaphenone] | 1.15 | 1.12 |  | 1.38 | 1.95 | Ki (human M2R [1]; [8]): 0.661 µM |
| CC(C(=O)c1ccccc1)N1CCCC1 (stereo not drawn) [α-PPP, α-Pyrrolidinopropiophenone] |  |  |  |  | 195 | Ki (human M2R [1]; Ki at M2Rs, full dose-response, interpolated): 73 µM; Ki (human M2R [1]; [8]): 75.9 µM |
| CCCCCCC(C(=O)c1ccccc1)N1CCCC1 (stereo not drawn) [α-PV9, α-Pyrrolidinooctanophenone] |  |  |  |  |  | cytotoxicity (mitochondrial activity, cellular membrane damage) [2]: potently decreased mitochondrial activity, and severely damaged cellular membranes |
| CCCC(C(=O)c1ccccc1)N1CCCC1 (stereo not drawn) [α-PVP, α-Pyrrolidinopentiophenone] | 4.17 | 6.03 |  | 8.13 | 5.13 | fold increase in M2R affinity compared to α-PBP (human M2R [1]): 49 fold; fold increase in M2R affinity compared to α-PPP (human M2R [1]): 89 fold; Ki (human M2R [1]; Ki at M2Rs, full dose-response [3H]Scopolamine competition binding): 0.824 µM; patients presenting with tachycardia [4]: 80% |
